Results taken from publication PMC5247677 (Scientific Reports, 2017).

Tests used:
hNaV1.2 = molecular target: T1, hNaV1.2 (Homo sapiens, UniProt Q99250); experiment: cell-based; conditions: whole cell electrophysiology, HEK293; pH 7.4, 0.1% BSA; holding −80 mV, test −20 mV; incubation 5–40 min; mean ± SEM, n = 3–9 cells; read-out: pIC50 at hNaV1.2 (converted)
T1 construct: host or cells: HEK293

[1] = tested on: motor performance in rats; format: in vivo, rat (Sprague Dawley)
Protocol: FCA was administered undiluted in a volume of 150 μL by i.pl injection in rats. Behavioural assessment was performed 3 days post-injection of FCA. For intrathecal administration, a polyethylene lumbar catheter was inserted into the intrathecal space between vertebrae L4–L5. […] Mechanical paw withdrawal thresholds were determined using manual von Frey with a series of calibrated filaments 0.4–15.1 g (Stoelting Co., Wood Dale, USA) using the up-down method. Paw withdrawal latency to a thermal stimulus was determined using the Hargreaves test (Ugo Basile, Camerio VA, Italy). Motor co-ordination was assessed using an accelerating rotarod (Ugo Basile). Latency to fall was recorded in seconds, with a maximal cut off of 300 s. At the completion of experiments, catheter placement was checked by injection of lignocaine (2%, 10 μL) and observation of rapid bilateral hind limb paralysis.

hNaV1.8 = molecular target: T2, hNaV1.8 (Homo sapiens, UniProt Q9Y5Y9); experiment: cell-based; conditions: whole cell patch-clamp
T2 construct: host or cells: CHO

NaV1.7 = conditions: 0.3–3 mg/kg i.p., mice
Protocol: For behavioural assessment we used adult male C57BL/6 J mice or Sprague Dawley rats aged 5–8 weeks. Animals were housed in groups of 2–4 per cage, under 12 h light-dark cycles with standard rodent chow and water ad libitum. All assessments were performed by a blinded investigator unaware of the treatment each animal received. Ethical approval for in vivo experiments in animals was obtained from the University of Queensland, University of Sydney or United Kingdom Home Office animal ethics committee. Experiments involving animals were conducted in accordance with the International Association for the Study of Pain Guidelines for the Use of Animals in Research and the Australian Code of Practice for the Care and Use of Animals for Scientific Purposes, 8th edition (2013).

rNaV1.7 = molecular target: T3, rNaV1.7 (Rattus norvegicus, UniProt O08562); experiment: Whole-cell patch-clamp (QPatch-16), rNaV1.7; format: cell-based; conditions: QPatch-16, HEK293; pH 7.4, 0.1% BSA; holding −80 mV, test −20 mV; mean ± SEM; read-out: pIC50 at rat NaV1.7 (converted)
T3 construct: expressed in transfected cells; host or cells: HEK293

hNaV1.9 = molecular target: T4, hNaV1.9 (Homo sapiens, UniProt Q9UI33); experiment: cell-based; conditions: PatchXpress, HEK293
T4 construct: host or cells: HEK293
Description: Data were plotted and analyzed using GraphPad Prism, version 6.0. For concentration-response curves, a four-parameter Hill equation with variable Hill coefficient was fitted to the data. […] Data are presented as mean ± SEM.

rKV2.1 = molecular target: T5, rKV2.1 (Rattus norvegicus, UniProt P15387); experiment: Two-electrode voltage-clamp in Xenopus oocytes, wild-type rKV2.1; format: cell-based; conditions: Xenopus laevis oocytes, pH 7.6, 22 °C, 0.1% BSA
T5 construct: expressed in transfected cells; host or cells: Xenopus laevis oocytes

[2] = precluded chronic testing
α3 nAChR = α3 nAChR (Homo sapiens, UniProt P32297); experiment: FLIPR calcium responses in SH-SY5Y cells, α3 nAChR; format: cell-based; conditions: FLIPR Tetra, nicotine 30 μM, 0.1–10 μM, 5 min pre-treatment
hNaV1.1 = molecular target: T6, hNaV1.1 (Homo sapiens, UniProt P35498); experiment: cell-based; conditions: whole cell electrophysiology, HEK293; pH 7.4, 0.1% BSA; holding −80 mV, test −20 mV; incubation 5–40 min; mean ± SEM, n = 3–9 cells; read-out: pIC50 at hNaV1.1 (converted)
T6 construct: host or cells: HEK293

mNaV1.7 = molecular target: T7, mNaV1.7 (Mus musculus, UniProt Q62205); experiment: Whole-cell patch-clamp (PatchXpress), mNaV1.7; format: cell-based; conditions: HEK293, pH 7.4, holding −120 mV, 20 ms test pulse 0 mV, mean ± SEM, read-out: pIC50 at mouse NaV1.7 (converted)
T7 construct: host or cells: HEK293

hNaV1.4 = molecular target: T8, hNaV1.4 (Homo sapiens, UniProt P35499); experiment: cell-based; conditions: whole cell electrophysiology, HEK293; pH 7.4, 0.1% BSA; holding −80 mV, test −20 mV; incubation 5–40 min; mean ± SEM, n = 3–9 cells; read-out: pIC50 at hNaV1.4 (converted)
T8 construct: host or cells: HEK293

hNaV1.5 = molecular target: T9, hNaV1.5 (Homo sapiens, UniProt Q14524); experiment: cell-based; conditions: whole cell electrophysiology, HEK293; pH 7.4, 0.1% BSA; holding −80 mV, test −20 mV; incubation 5–40 min; mean ± SEM, n = 3–9 cells; read-out: pIC50 at hNaV1.5 (converted)
T9 construct: host or cells: HEK293

hNaV1.3 = molecular target: T10, hNaV1.3 (Homo sapiens, UniProt Q9NY46); experiment: cell-based; conditions: whole cell electrophysiology, HEK293; pH 7.4, 0.1% BSA; holding −80 mV, test −20 mV; incubation 5–40 min; mean ± SEM, n = 3–9 cells; read-out: pIC50 at hNaV1.3 (converted)
T10 construct: host or cells: HEK293

hNaV1.6 = molecular target: T11, hNaV1.6 (Homo sapiens, UniProt Q9UQD0); experiment: cell-based; conditions: whole cell electrophysiology, HEK293; pH 7.4, 0.1% BSA; holding −80 mV, test −20 mV; incubation 5–40 min; mean ± SEM, n = 3–9 cells; read-out: pIC50 at hNaV1.6 (converted)
T11 construct: host or cells: HEK293

α7 nAChR = α7 nAChR (Homo sapiens, UniProt P36544); experiment: FLIPR calcium responses in SH-SY5Y cells, α7 nAChR; format: cell-based; conditions: FLIPR Tetra, choline with PNU120596, 0.1–10 μM, 5 min pre-treatment
Chain of α7 nAChR (P36544 23-502): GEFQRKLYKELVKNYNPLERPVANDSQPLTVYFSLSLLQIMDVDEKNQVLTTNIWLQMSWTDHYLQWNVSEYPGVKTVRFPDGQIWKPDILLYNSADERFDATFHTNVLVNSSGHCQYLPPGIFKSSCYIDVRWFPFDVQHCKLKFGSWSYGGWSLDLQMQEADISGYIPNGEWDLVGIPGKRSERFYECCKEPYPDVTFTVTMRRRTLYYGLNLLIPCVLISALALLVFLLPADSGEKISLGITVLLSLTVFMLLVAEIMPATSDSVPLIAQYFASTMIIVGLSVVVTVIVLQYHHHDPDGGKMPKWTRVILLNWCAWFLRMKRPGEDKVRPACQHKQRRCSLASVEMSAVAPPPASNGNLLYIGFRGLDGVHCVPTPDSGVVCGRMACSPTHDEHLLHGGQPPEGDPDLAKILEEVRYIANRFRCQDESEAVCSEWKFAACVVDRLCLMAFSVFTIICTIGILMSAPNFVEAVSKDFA

T7 sequence (Q62205 whole entry): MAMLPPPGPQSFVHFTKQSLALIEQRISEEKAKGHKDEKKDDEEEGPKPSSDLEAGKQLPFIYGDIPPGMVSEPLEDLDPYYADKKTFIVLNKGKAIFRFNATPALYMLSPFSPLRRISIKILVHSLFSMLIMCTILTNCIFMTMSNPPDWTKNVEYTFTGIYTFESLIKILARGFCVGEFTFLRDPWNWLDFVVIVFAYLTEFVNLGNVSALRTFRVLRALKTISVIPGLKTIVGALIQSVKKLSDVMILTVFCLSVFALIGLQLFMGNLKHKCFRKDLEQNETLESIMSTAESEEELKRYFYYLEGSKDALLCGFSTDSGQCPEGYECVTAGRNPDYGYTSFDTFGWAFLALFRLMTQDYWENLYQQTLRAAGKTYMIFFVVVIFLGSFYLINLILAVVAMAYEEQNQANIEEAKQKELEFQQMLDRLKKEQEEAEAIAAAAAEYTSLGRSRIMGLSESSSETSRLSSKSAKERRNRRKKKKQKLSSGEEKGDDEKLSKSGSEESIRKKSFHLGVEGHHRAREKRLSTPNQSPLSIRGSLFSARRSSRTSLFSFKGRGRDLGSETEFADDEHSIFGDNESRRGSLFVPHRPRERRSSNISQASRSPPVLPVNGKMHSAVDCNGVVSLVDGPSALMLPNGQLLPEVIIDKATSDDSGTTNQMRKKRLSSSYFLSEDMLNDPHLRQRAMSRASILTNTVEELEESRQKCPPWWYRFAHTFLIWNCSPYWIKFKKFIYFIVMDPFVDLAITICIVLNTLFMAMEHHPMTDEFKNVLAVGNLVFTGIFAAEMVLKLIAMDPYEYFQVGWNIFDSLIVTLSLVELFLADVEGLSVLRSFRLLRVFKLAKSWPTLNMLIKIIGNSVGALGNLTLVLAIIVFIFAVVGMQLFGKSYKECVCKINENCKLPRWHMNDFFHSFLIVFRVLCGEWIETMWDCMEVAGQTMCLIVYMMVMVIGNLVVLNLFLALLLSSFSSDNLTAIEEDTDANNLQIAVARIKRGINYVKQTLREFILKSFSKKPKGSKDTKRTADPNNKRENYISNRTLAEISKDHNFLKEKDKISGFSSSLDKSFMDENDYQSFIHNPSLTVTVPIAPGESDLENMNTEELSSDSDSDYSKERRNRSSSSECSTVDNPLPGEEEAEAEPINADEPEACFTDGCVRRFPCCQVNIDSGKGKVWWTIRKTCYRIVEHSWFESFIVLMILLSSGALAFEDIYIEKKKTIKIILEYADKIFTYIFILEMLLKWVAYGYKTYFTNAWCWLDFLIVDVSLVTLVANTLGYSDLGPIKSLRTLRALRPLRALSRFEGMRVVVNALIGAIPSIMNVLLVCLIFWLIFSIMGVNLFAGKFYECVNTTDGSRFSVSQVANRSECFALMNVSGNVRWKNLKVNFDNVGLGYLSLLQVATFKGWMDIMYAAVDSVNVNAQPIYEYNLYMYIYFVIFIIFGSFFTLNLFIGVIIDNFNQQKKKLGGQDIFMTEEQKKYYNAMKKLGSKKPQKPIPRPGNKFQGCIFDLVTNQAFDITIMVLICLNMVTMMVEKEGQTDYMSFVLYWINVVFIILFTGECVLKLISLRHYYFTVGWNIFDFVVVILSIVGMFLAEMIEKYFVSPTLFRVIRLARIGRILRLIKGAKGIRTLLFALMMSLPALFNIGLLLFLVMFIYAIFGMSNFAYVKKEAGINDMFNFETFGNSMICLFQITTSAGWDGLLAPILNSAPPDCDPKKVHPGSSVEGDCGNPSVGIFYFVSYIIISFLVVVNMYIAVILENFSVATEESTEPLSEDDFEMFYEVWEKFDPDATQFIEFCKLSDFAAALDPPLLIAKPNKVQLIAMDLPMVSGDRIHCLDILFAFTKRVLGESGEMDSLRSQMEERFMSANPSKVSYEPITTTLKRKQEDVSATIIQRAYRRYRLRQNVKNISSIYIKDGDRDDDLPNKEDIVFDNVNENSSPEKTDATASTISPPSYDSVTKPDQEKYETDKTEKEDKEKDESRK
T2 sequence (Q9Y5Y9 whole entry): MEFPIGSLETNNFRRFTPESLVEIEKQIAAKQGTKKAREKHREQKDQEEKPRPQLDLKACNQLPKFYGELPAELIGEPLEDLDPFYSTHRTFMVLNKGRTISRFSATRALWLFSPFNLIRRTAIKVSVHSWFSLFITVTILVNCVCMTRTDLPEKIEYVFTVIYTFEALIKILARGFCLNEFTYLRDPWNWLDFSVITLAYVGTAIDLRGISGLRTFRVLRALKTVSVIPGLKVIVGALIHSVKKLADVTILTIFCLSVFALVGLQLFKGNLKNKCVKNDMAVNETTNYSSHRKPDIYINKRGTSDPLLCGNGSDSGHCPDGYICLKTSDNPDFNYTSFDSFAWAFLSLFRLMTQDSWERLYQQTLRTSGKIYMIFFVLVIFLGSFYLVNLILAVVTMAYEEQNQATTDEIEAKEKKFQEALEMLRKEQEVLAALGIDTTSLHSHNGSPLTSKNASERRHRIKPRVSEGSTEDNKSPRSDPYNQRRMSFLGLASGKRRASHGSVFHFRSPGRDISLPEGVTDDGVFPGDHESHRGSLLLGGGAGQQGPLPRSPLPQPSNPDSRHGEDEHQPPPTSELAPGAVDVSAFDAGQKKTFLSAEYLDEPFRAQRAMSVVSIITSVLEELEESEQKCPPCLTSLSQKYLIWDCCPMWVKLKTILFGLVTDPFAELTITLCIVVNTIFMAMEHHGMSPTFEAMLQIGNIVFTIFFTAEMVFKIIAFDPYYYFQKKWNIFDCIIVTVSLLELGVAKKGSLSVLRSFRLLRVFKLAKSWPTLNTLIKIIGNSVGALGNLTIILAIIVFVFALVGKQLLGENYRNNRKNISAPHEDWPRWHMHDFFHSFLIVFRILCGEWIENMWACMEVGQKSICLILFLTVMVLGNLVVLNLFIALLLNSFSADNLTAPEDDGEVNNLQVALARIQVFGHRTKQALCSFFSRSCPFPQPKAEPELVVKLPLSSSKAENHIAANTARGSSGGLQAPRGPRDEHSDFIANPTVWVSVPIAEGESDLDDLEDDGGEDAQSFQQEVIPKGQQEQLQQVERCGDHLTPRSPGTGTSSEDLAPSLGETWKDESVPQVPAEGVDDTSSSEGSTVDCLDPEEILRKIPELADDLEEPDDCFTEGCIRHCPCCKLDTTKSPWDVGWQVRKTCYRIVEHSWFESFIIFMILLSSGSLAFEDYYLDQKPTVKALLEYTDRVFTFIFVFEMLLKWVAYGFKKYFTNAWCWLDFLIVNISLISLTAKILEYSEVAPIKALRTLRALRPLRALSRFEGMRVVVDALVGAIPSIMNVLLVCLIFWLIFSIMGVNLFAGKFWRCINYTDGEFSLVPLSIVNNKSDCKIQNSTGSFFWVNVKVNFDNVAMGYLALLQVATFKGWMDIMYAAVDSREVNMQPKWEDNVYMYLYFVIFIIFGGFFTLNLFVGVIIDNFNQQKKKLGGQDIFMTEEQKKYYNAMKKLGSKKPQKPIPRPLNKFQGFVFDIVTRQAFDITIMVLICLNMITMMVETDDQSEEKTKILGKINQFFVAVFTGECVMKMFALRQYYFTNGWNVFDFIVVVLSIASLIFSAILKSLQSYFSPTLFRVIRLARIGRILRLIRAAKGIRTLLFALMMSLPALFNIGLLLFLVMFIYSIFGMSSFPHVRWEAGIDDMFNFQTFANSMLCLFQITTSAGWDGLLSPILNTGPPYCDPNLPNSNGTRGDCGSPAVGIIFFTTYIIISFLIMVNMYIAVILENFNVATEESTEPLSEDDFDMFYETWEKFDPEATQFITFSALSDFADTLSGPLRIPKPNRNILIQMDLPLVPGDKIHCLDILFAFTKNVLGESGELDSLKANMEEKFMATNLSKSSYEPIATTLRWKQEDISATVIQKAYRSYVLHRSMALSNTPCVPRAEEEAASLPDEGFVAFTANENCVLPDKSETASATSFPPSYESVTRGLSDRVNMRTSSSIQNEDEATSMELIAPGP
Chain of α3 nAChR (P32297 32-505): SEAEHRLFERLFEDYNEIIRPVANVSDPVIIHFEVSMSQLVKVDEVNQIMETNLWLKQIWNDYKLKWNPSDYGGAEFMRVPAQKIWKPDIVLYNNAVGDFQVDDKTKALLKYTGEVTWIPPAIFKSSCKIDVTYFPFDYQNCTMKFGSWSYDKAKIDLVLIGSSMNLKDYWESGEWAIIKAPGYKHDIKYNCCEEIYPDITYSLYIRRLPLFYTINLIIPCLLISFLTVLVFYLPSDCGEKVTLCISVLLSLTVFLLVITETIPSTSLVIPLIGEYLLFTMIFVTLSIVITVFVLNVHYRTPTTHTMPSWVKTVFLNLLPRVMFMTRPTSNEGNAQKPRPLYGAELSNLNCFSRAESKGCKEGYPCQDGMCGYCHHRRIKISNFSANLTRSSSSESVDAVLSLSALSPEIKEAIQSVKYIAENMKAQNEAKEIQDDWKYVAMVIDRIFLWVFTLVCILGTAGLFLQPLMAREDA

SMILES: CSCC[C@@H]1NC(=O)[C@H](Cc2ccc(O)cc2)NC(=O)[C@H](CCCNC(=N)N)NC(=O)[C@@H](NC(=O)[C@@H](N)CC(=O)O)CSSC[C@@H]2NC(=O)[C@@H]3CSSC[C@@H](C(=O)N[C@@H](C)C(=O)N[C@@H](Cc4c[nH]c5ccccc45)C(=O)N[C@@H](CC(=O)O)C(=O)N[C@@H](Cc4ccccc4)C(=O)N[C@H](C(=O)N[C@@H](Cc4ccccc4)C(=O)N[C@H](C(=O)O)[C@@H](C)O)[C@@H](C)O)NC(=O)[C@H](Cc4ccc(O)cc4)NC(=O)[C@H](CCCCN)NC(=O)[C@H](CCSC)NC(=O)[C@H](CCCCN)NC(=O)[C@H](CCCNC(=N)N)NC(=O)[C@H](CCCCN)NC(=O)[C@H](CSSC[C@H](NC(=O)[C@H](CC(=O)O)NC(=O)CNC(=O)[C@H](Cc4ccccc4)NC1=O)C(=O)N[C@@H](CCC(=O)O)C(=O)N[C@@H](CCCCN)C(=O)N[C@@H](CC(=O)O)C(=O)N[C@@H](CCC(=O)O)C(=O)N[C@@H](CC(=O)O)C(=O)N3)NC(=O)CNC(=O)[C@H](CC(C)C)NC(=O)[C@H](Cc1cnc[nH]1)NC(=O)[C@H](CCCCN)NC2=O [Pn3a, μ-theraphotoxin-Pn3a]
- IC50 (hNaV1.2): 123 nM
- Rotarod % Baseline ([1]; 0.3 nmoles intrathecal, control 88 ± 7%, P > 0.05, unpaired t-test, n = 4–9): 91 ± 11%
- motor effect ([1]; 1 nmole intrathecal, rats, data not shown): motor impairment was observed
- IC50 (hNaV1.8): 49900 nM
- adverse effects (NaV1.7): absence of adverse effects
- IC50 (rNaV1.7): 1.48 nM
- IC50 (hNaV1.9): 2430 nM
- IC50 (rKV2.1): > 300 nM
- pharmacokinetics [2]: poor pharmacokinetics
- IC50 (α3 nAChR): > 10000 nM
- IC50 (hNaV1.1): 37.2 nM
- IC50 (mNaV1.7): 4.37 nM
- IC50 (hNaV1.4): 145 nM
- IC50 (hNaV1.5): 794 nM
- IC50 (hNaV1.3): 209 nM
- IC50 (hNaV1.6): 129 nM
- IC50 (α7 nAChR): > 10000 nM
